Assay results from US9458428B2, “Methods and compositions for the rapid production of retinal pigmented epithelial cells from pluripotent cells” (The Regents of the University of California, priority 2012, dated 2016).
Ends that are not written are not given here.

Legend:
pluripotent stem cells [1] = assay: qPCR gene expression, early eye field differentiation, day 4; format: cell-based, human; conditions: for expression of early neural/early eye field marker Lhx2 / expression of early neural/early eye field marker Rax / expression of the pluripotency genes Oct4 and Nanog: day 4, added to IGF1, Noggin, Dkk1 and bFGF, compared with controls; for expression of the pluripotency genes Oct4 and Nanog: 10 mM nicotinamide or 5 mM 3-aminobenzamide
Method: (§1) Pluripotent stem cells were passaged directly onto Matrigel (BD Biosciences) in DMEM/F12 with 1×B27, 1×N2, and 1×NEAA (Invitrogen). From days 0 to 2, 50 ng/ml Noggin, 10 ng/ml Dkk1, and 10 ng/ml IGF1 (R&D Systems Inc., Minneapolis, Minn., http://www.rndsystems.com) and in some experiments 10 mM nicotinamide or 5 mM 3-aminobenzamide (Sigma-Aldrich) were added to the base medium. From days 2 to 4, 10 ng/ml Noggin, 10 ng/ml Dkk1, 10 ng/ml IGF1, and 5 ng/ml bFGF and in some experiments 10 mM nicotinamide or 5 mM 3-aminobenzamide were added to the base medium. From days 4 to 6, 10 ng/ml Dkk1 and 10 ng/ml IGF1 and in some experiments 100 ng/ml Activin A (R&D Systems) were added to the base medium. From days 6 to 14, 100 ng/ml Activin A, 10 μM SU5402 (EMD Millipore, Darmstadt, Germany, http://www.emdmillipore.com), and […] VIP (Sigma-Aldrich) were added to the base medium. Control experiments were also performed in base media alone (DMEM/F12, B27, N2, and NEAA).
(§2) Quantitative Real-Time Polymerase Chain Reaction Total RNA of RPE marker genes was isolated using primers based upon the mRNA sequences of such genes. QPCR methods were carried out with the RNeasy Plus Mini Kit (Qiagen, Hilden, Germany, http://www.qiagen.com). cDNA was synthesized from 1 μg of RNA using the iScript cDNA Synthesis Kit (Bio-Rad, Hercules, Calif., http://www.bio-rad.com). Primer pairs were designed to create a 75-200-base pair product (Beacon Design 4.0; Premier Biosoft International, Palo Alto, Calif., http://www.premierbiosoft.com). Quantitative real-time polymerase chain reaction (PCR) was carried out on a Bio-Rad MyIQ Single Color Real-Time PCR Detection System using the SYBR Green method, as described in Woo T H, Patel B K, Cinco M et al. Identification of Leptospira biflexa by real-time homogeneous detection of rapid cycle PCR product. J Microbiol Methods 1999; 35:23-30. Triplicate 20-μl reactions were run in a 96-well plate with half of the cDNA synthesis reaction used per plate. Primer specificity was confirmed by melting temperature analysis, gel electrophoresis, and direct sequencing (Iowa State DNA Facility, Ames, Iowa). The data were normalized to the geometric mean of the “housekeeping” genes: glyceraldehyde phosphate dehydrogenase (GAPDH), hydroxymethylbilane synthase (HMBS), and glucose phosphate isomerase (GPI), as described in Radeke M J, Peterson K E, Johnson L V et al. Disease susceptibility of the human macula: Differential gene transcription in the retinal pigmented epithelium/choroid. Exp Eye Res 2007; 85:366-380.

early eye field cells [2] = assay: qPCR gene expression, RPE specification of early eye field cells, day 10; format: cell-based, human; conditions: for gene expression of Mitf / expression of Rax: day 10; for gene expression of Mitf: Activin A added days 4-10, SU5402 or VIP days 6-10
Method: as §1, §2

pluripotent stem cells [3] = assay: Cell morphology during early eye field differentiation; format: cell-based, human; conditions: compared with control cells
Method: as §1

early eye field cells [4] = assay: Pigmentation of differentiating cultures; format: cell-based, human; conditions: cultures containing VIP, between days 10 and 14
Method: as §1

[5] = molecular target: myosin light-chain kinase; conditions: cited from earlier work
dissociated RPE = assay: Rescue of RPE after single-cell dissociation on day 14; format: cell-based, human; conditions: 10 μM for the first 3 days after passage
Method: The cells were mechanically enriched by scraping away cells with non-RPE morphology. Subsequently, the remaining RPE were digested using TrypLE Express (Invitrogen) for ˜5 minutes at 37° C. The cells were passed through a 30-μm single-cell strainer and seeded onto Matrigel-coated tissue culture plastic, Transwell membranes (Corning Enterprises, Corning, N.Y., http://www.corning.com), or CC2-treated chambered slides. Enriched cells were cultured in DMEM-high glucose with 1% fetal bovine serum (FBS), GlutaMAX, and sodium pyruvate (Invitrogen) for 30 days, as described in Ahmado A, Carr A J, Vugler A A et al. Induction of differentiation by pyruvate and DMEM in the human retinal pigment epithelium cell line ARPE-19. Invest Ophthalmol Vis Sci 2011; 52:7148-7159.
Differentiated Cells Can Be Enriched on Day 14 to Homogenous Cultures of Functional RPE. To generate more homogenous populations of RPE, readily visible sheets on day 14 were mechanically isolated, dissociated into single cells, and replated in an RPE medium described in Buchholz D E, Hikita S T, Rowland T J et al. Derivation of functional retinal pigmented epithelium from induced pluripotent stem cells. STEM CELLS 2009; 27:2427-2434, on Matrigel-coated tissue culture plastic, chambered slides, or Transwell inserts. […]

PKC = conditions: cited from earlier work
[6] = molecular target: cAMP-dependent protein kinase; conditions: cited from earlier work
[7] = Activin A added days 4-10, SU5402 days 6-10

Molecule: NC(=O)c1cccc(N)c1 [3-aminobenzamide]
- expression of early neural/early eye field marker Lhx2 (pluripotent stem cells [1]): significantly increased
- expression of early neural/early eye field marker Rax (pluripotent stem cells [1]): significantly increased
- expression of the pluripotency genes Oct4 and Nanog (pluripotent stem cells [1]): reduced
- ability to recapitulate the effects of nicotinamide (pluripotent stem cells [1]; day 4, overall): partially recapitulate the effects of nicotinamide

Molecule: Cc1c[nH]c(/C=C2\C(=O)Nc3ccccc32)c1CCC(=O)O [SU5402]
- gene expression of Mitf (early eye field cells [2]): little effect
- expression of Rax (early eye field cells [2]; [7]): little effect
- expression of Rax (early eye field cells [2]; SU5402 in combination with Activin A): further decreased

Molecule: NC(=O)c1cccnc1 [nicotinamide]
- expression of early neural/early eye field marker Lhx2 (pluripotent stem cells [1]): increased
- expression of early neural/early eye field marker Rax (pluripotent stem cells [1]): the increase in Rax was not significant
- expression of the pluripotency genes Oct4 and Nanog (pluripotent stem cells [1]): significantly decreased
- Pax6(−5a) expression (pluripotent stem cells [1]; day 4, nicotinamide against control conditions): similar
- cell morphology (pluripotent stem cells [3]): rapidly adopted a radial/rosette morphology

Molecule: VIP: vasoactive intestinal peptide, a cyclic AMP upregulator (HSDAVFTDNYTRLRKQMAVKKYLNSILN; ends and bridges not checked; UniProt P01282 125-152, looked up)
- pigmentation (early eye field cells [4]): increased
- expression of RPE marker gene PEDF (early eye field cells [2]; VIP added days 6-10): significantly increased
- expression of RPE marker gene tyrosinase (early eye field cells [2]; VIP added days 6-10): significantly increased
- gene expression of Mitf (early eye field cells [2]): significantly increased

Molecule: C[C@@H](N)[C@H]1CC[C@H](C(=O)Nc2ccncc2)CC1 [Y-27632]
- Ki [5]: > 250 µM
- Ki [6]: 25 µM

B1: Activin A: Recombinant Activin A, media additive (protein, UniProt P08476 311-426, looked up)
Inhibin beta A chain: GLECDGKVNICCKKQFFVSFKDIGWNDWIIAPSGYHANYCEGECPSHIAGTSGSSLSFHSTVINHYRMRGHSPFANLKSCCVPTKLRPMSMLYYDDGQNIIKKDIQNMIVEECGCS
- gene expression of Mitf (early eye field cells [2]): little effect
- expression of Rax (early eye field cells [2]; [7]): significantly decreased
